Measurements reported in patent publication US12064516B2, “Pharmaceutical formulations and uses thereof” (Aldeyra Therapeutics, Inc., priority 2020, dated 2024).

Test: Phase 1 clinical trial, single ascending dose (SAD) pharmacokinetics
Type: in vivo, human
Details: healthy volunteers; for AUC(0-inf) / Cmax / half-life: human, in vivo, po
Description: Pharmacokinetic data are presented below.

[1] = 100 mg, oral single dose 100 mg
[2] = 200 mg, oral single dose 200 mg
[3] = 400 mg, oral single dose 400 mg
[4] = 700 mg, oral single dose 700 mg
[5] = 1200 mg, oral single dose 1200 mg

CC(C)(O)c1nc2ccccc2cc1N [I-1]
AUCinf (oral single dose 20 mg): 50.0 ng·h/mL
AUCinf (oral single dose 50 mg): 156 ng·h/mL
AUCinf (oral single dose 100 mg): 433 ng·h/mL
AUCinf (oral single dose 200 mg): 1140 ng·h/mL
AUCinf (oral single dose 400 mg): 2730 ng·h/mL
AUCinf (oral single dose 700 mg): 6710 ng·h/mL
AUCinf (oral single dose 1200 mg): 14500 ng·h/mL
AUC(0-inf) (20 mg, oral single dose 20 mg): ~50 ng·h/mL
Cmax (20 mg, oral single dose 20 mg): ~26.4 ng/mL
AUC(0-inf) (50 mg, oral single dose 50 mg): ~156 ng·h/mL
Cmax (50 mg, oral single dose 50 mg): ~56.7 ng/mL
AUC(0-inf) [1]: ~433 ng·h/mL
Cmax [1]: ~140 ng/mL
half-life [1]: 3.52 h
AUC(0-inf) [2]: ~1140 ng·h/mL
Cmax [2]: ~459 ng/mL
half-life [2]: 6.04 h
AUC(0-inf) [3]: ~2730 ng·h/mL
Cmax [3]: ~869 ng/mL
half-life [3]: 6.15 h
AUC(0-inf) [4]: ~6710 ng·h/mL
Cmax [4]: ~2020 ng/mL
half-life [4]: 7.33 h
AUC(0-inf) [5]: ~14500 ng·h/mL
Cmax [5]: ~4220 ng/mL
half-life [5]: 7.69 h
